Reference: patent US20100035984A1, “Use of an antibacterial compound which is derived from alliaceae, as a natural additive in animal feed” (DMC Research Center, S.L., priority 2006, published 2010)
Values joined by “and” are separate entries in the source; they are usually repeats but may differ in a detail not shown here. Identical values can stand only once. Marks after values point to notes of the source that are not given here.

Columns and labels:
Format in all cases: cell-based
bifidobacteria = assay: In vitro fermentation of pig feces, bifidobacteria count (Example 2); conditions: 200 mg/L, 24 hours
Method: (§1) The mean values affected by different indexes indicate significant differences (p<0.05). The vertical axis of the graph determines the log 10(cfu/g feces) and the horizontal axis determines the compound. The described assays are carried out using complete bacterial inocula obtained from feces of piglets in post-weaning stage. Two of the compounds (referenced as PTS and as PTSO) are assayed in a lower dose range (50-400 mg/L).

[1] = test system: microbiota of the ruminal inoculum (ruminal fluid of goats); assay: In vitro ruminal degradation of experimental diets (Example 3); conditions: for DDM (degradability of dry matter), mean / DOM (degradability of organic matter), mean: 48 hours; for Mean DDM / Mean DOM / DDM (degradation of dry matter) / DOM (degradation of organic matter): diet D1, 24 hours
Method: The Effect of Different Doses of the Compounds Object of Study on the Ruminal Degradation of Two Different Diets the Composition of which is in Table 1 is Studied The diets consist of alfalfa hay (standard maintenance diet for ruminant animals) or of a mixture of 50% alfalfa hay and a commercial concentrate (standard lactation diet for ruminant animals). In vitro incubation is performed using ruminal fluid of goats as inoculum.

lactobacilli = assay: In vitro fermentation of pig feces, lactobacilli count (Example 2); conditions: 200 mg/L, 24 hours
Method: as §1

[2] = test system: ruminal fermentation (methane-producing microorganisms); assay: Production of gas by in vitro fermentation of the diets (Example 4)
Method: The effect of different doses of the compounds object of study on the production of gas promoted by in vitro fermentation for 24 and 48 hours of the diets the composition of which is included in Table 1 is studied.

[3] = Alfalfa hay + concentrate, 10 ppm
[4] = Alfalfa hay + concentrate, 25 ppm
[5] = Alfalfa hay + concentrate, 50 ppm
[6] = Alfalfa hay + concentrate, 300 ppm
[7] = Alfalfa hay + concentrate, 750 ppm
[8] = Alfalfa hay + concentrate, 1000 ppm
[9] = Alfalfa hay + concentrate, 2000 ppm
[10] = diet D1, 50 to 750 ppm, 24 hours in vitro incubation
[11] = diet D1, 48 hours, 10 ppm, replicates
[12] = diet D1, 48 hours, 25 ppm, replicates
[13] = diet D1, 48 hours, concentration 50, replicates
[14] = diet D1, 48 hours, concentration 300, replicates
[15] = diet D1, 48 hours, concentration 750, replicates
[16] = diet D1, 48 hours, concentration 1000, replicates
[17] = diet D2, 48 hours, 10 ppm, replicates
[18] = diet D2, 48 hours, 25 ppm, replicates
[19] = diet D2, 48 hours, concentration 50, replicates
[20] = diet D2, 48 hours, concentration 300, replicates
[21] = diet D2, 48 hours, concentration 750, replicates
[22] = diet D2, 48 hours, concentration 1000, replicates
[23] = diet D2, 48 hours, concentration 2000, replicates

Substance: propyl propylthiosulfinate [PTS]
- bifidobacteria logarithmic reduction in the population (bifidobacteria): approximately 50%
- DDM (degradability of dry matter), mean [1, 3]: 63.9^ab
- DOM (degradability of organic matter), mean [1, 3]: 63.9^ab
- DDM (degradability of dry matter), mean [1, 4]: 59.4^b
- DOM (degradability of organic matter), mean [1, 4]: 59.7^b
- DDM (degradability of dry matter), mean [1, 5]: 59.8^b
- DOM (degradability of organic matter), mean [1, 5]: 59.8^b
- DDM (degradability of dry matter), mean [1, 6]: 48.3^c
- DOM (degradability of organic matter), mean [1, 6]: 47.8^c
- DDM (degradability of dry matter), mean [1, 7]: 43.5^c
- DOM (degradability of organic matter), mean [1, 7]: 45.5^c
- DDM (degradability of dry matter), mean [1, 8]: 45.6^c
- DOM (degradability of organic matter), mean [1, 8]: 45.1^c
- DDM (degradability of dry matter), mean [1, 9]: 45.3^c
- DOM (degradability of organic matter), mean [1, 9]: 38.7^d
- DDM (degradability of dry matter), mean ([1]; Alfalfa hay, 10 ppm): 54.2^a
- DOM (degradability of organic matter), mean ([1]; Alfalfa hay, 10 ppm): 54.5^a
- DDM (degradability of dry matter), mean ([1]; Alfalfa hay, 25 ppm): 52.3^a
- DOM (degradability of organic matter), mean ([1]; Alfalfa hay, 25 ppm): 42.9^bc
- DDM (degradability of dry matter), mean ([1]; Alfalfa hay, 50 ppm): 46.6^b
- DOM (degradability of organic matter), mean ([1]; Alfalfa hay, 50 ppm): 46.7^b
- DDM (degradability of dry matter), mean ([1]; Alfalfa hay, 300 ppm): 40.6^c
- DOM (degradability of organic matter), mean ([1]; Alfalfa hay, 300 ppm): 41.0^c
- DDM (degradability of dry matter), mean ([1]; Alfalfa hay, 750 ppm): 39.6^c
- DOM (degradability of organic matter), mean ([1]; Alfalfa hay, 750 ppm): 39.2^c
- DDM (degradability of dry matter), mean ([1]; Alfalfa hay, 1000 ppm): 39.1^c
- DOM (degradability of organic matter), mean ([1]; Alfalfa hay, 1000 ppm): 38.8^c
- DDM (degradability of dry matter), mean ([1]; Alfalfa hay, 2000 ppm): 39.6^c
- DOM (degradability of organic matter), mean ([1]; Alfalfa hay, 2000 ppm): 40.0^c
- DDM ([1]; Table 4: diet D1, 48 hours, concentration 2000, replicates): 40.2% and 38.9%
- effect on degradation of dry matter [1, 10]: reduction of the degradation of dry matter
- effect on degradation of organic matter [1, 10]: do not affect
- Mean DDM ([1]; 50 ppm): 37.1%
- Mean DOM ([1]; 50 ppm): 38.5%
- DDM (degradation of dry matter) ([1]; 50 ppm, replicates): 37.7% (2×) and 37.9% and 34.1% and 35.6% and 39.3%
- DOM (degradation of organic matter) ([1]; 50 ppm, replicates): 38.0% and 38.9%
- Mean DDM ([1]; 300 ppm): 37.4%
- DDM (degradation of dry matter) ([1]; 300 ppm, replicates): 38.5% and 40.4% and 37.6% and 36.0% and 35.7% and 36.2%
- Mean DDM ([1]; 750 ppm): 39.5%
- Mean DOM ([1]; 750 ppm): 38.1%
- DDM (degradation of dry matter) ([1]; 750 ppm, replicates): 40.8% and 37.7% and 43.2% and 39.5% and 37.9% and 38.0%
- DOM (degradation of organic matter) ([1]; 750 ppm, replicates): 39.4% and 36.8%
- DDM [1, 11]: 54.5% and 53.9%
- DOM [1, 11]: 54.8% and 54.2%
- DDM [1, 12]: 52.0% and 52.5%
- DOM [1, 12]: 43.0% and 42.9%
- DDM [1, 13]: 46.2% and 46.9%
- DOM [1, 13]: 47.5% and 45.9%
- DDM [1, 14]: 41.8% and 39.4%
- DOM [1, 14]: 42.5% and 39.5%
- DDM [1, 15]: 39.6% and 39.7%
- DOM [1, 15]: 38.6% and 39.7%
- DDM [1, 16]: 39.1%
- DOM [1, 16]: 38.6% and 38.9%
- DOM ([1]; diet D1, 48 hours, concentration 2000, replicates): 40.3% and 39.7%
- DDM [1, 17]: 64.0% and 63.9%
- DOM [1, 17]: 63.8% and 64.0%
- DDM [1, 18]: 57.4% and 61.4%
- DOM [1, 18]: 57.6% and 61.8%
- DDM [1, 19]: 60.9% and 58.7%
- DOM [1, 19]: 60.9% and 58.8%
- DDM [1, 20]: 49.3% and 47.2%
- DOM [1, 20]: 48.6% and 47.1%
- DDM [1, 21]: 44.8% and 42.2%
- DOM [1, 21]: 46.5% and 44.6%
- DDM [1, 22]: 46.1% and 45.1%
- DOM [1, 22]: 45.6% and 44.7%
- DDM [1, 23]: 45.7% and 44.9%
- DOM [1, 23]: 38.9% and 38.5%
- lactobacilli logarithmic reduction in the population (lactobacilli): approximately 50%
- inhibitory effect on production of fermentation gas, dependence on dose [2]: dose-dependent
- inhibitory effect on production of fermentation gas, dependence on time ([2]; 24 and 48 hours): time-dependent
- doses at which the inhibitory effect on production of fermentation gas is observed ([2]; diet D2): 10 ppm
